Laboratory results from ChEMBL document CHEMBL3779770, “Synthesis, biological evaluation and molecular docking study of some novel indole and pyridine based 1,3,4-oxadiazole derivatives as potential antitubercular agents” (Bioorg Med Chem Lett, 2016).
Converted amounts (≈) assume the structure as drawn.

Tests used:
HeLa = assay: (§1) Cytotoxicity against human HeLa cells after 72 hrs by MTT assay; format: cell-based; settings: hela, 72 h
[1] = as §1; format: cell-based; settings: HeLa cells
[2] = Cytotoxicity against human PANC1 cells after 48 hrs by MTT assay; format: cell-based, PANC-1; settings: for GI50 at 48 h: PANC1 cells; for GI90: panc-1, 48 h
Pseudomonas fluorescens = assay: Antibacterial activity against Pseudomonas fluorescens NCIM 2036 after 8 hrs; format: functional, organism-based; settings: NCIM 2036, 8 h
Bacillus subtilis = assay: Antibacterial activity against Bacillus subtilis NCIM 2079 after 12 hrs; format: functional, organism-based; settings: NCIM 2079, 12 h
Staphylococcus aureus = assay: Antibacterial activity against Staphylococcus aureus NCIM 2010 after 12 hrs; format: functional, organism-based; settings: NCIM 2010, 12 h
A549 = assay: (§2) Cytotoxicity against human A549 cells after 48 hrs by MTT assay; format: cell-based; settings: a549, 48 h
[3] = as §2; format: cell-based; settings: A549 cells
[4] = test system: Mycobacterium tuberculosis; assay: Antitubercular activity against dormant state Mycobacterium tuberculosis H37Ra assessed as viable cells after 12 days by XTT reduction menadione assay; format: functional, organism-based; settings: 288 h
[5] = test system: Mycobacterium tuberculosis; assay: Antitubercular activity against active state Mycobacterium tuberculosis H37Ra assessed as viable cells after 8 days by XTT reduction menadione assay; format: functional, organism-based; settings: 192 h
Escherichia coli = assay: Antibacterial activity against Escherichia coli NCIM 2688 after 8 hrs; format: functional, organism-based; settings: NCIM 2688, 8 h
[6] = Selectivity index, ratio of GI50 for human A549 cells to MIC for dormant state Mycobacterium bovis BCG ATCC 35734; format: toxicity, cell-based; settings: read-out: Selectivity Index
[7] = Selectivity index, ratio of GI50 for human PANC1 cells to MIC for active state Mycobacterium bovis BCG ATCC 35734; format: toxicity, cell-based, PANC-1; settings: read-out: Selectivity Index
[8] = Selectivity index, ratio of GI50 for human PANC1 cells to MIC for dormant state Mycobacterium bovis BCG ATCC 35734; format: toxicity, cell-based, PANC-1; settings: read-out: Selectivity Index
[9] = Selectivity index, ratio of GI50 for human A549 cells to MIC for active state Mycobacterium bovis BCG ATCC 35734; format: toxicity, cell-based; settings: read-out: Selectivity Index
[10] = Selectivity index, ratio of GI50 for human HeLa cells to MIC for active state Mycobacterium bovis BCG ATCC 35734; format: toxicity, cell-based; settings: read-out: Selectivity Index
[11] = Selectivity index, ratio of GI50 for human HeLa cells to MIC for dormant state Mycobacterium bovis BCG ATCC 35734; format: toxicity, cell-based; settings: read-out: Selectivity Index

Compound | GI90 (HeLa) | GI50 at 72 h [1] | GI50 at 48 h [2] | GI90 [2] | IC50 (Pseudomonas fluorescens) | MIC (Pseudomonas fluorescens) | IC50 (Bacillus subtilis) | MIC (Bacillus subtilis) | IC50 (Staphylococcus aureus) | MIC (Staphylococcus aureus) | GI90 (A549) | GI50 at 48 h [3] | IC50 [4] | MIC [4] | IC50 [5] | MIC [5] | IC50 (Escherichia coli) | MIC (Escherichia coli) | other results
O=C(/C=C\c1cccc(Br)c1)N1N=C(c2ccncc2)OC1c1c[nH]c2ccccc12 (stereo not given) | > 30 µg/mL | > 30 µg/mL | > 30 µg/mL | > 30 µg/mL | 3.19 µg/mL (≈ 6.74 µM) | 19.1 µg/mL (≈ 40.2 µM) | 4.74 µg/mL (≈ 10 µM) | 22.6 µg/mL (≈ 47.9 µM) | 2.01 µg/mL (≈ 4.25 µM) | 21.1 µg/mL (≈ 44.5 µM) | > 30 µg/mL | > 30 µg/mL | > 30 µg/mL | > 30 µg/mL | > 30 µg/mL | > 30 µg/mL | 2.39 µg/mL (≈ 5.05 µM) | 18.2 µg/mL (≈ 38.6 µM) | –
O=C(/C=C/c1c(Cl)cccc1Cl)N1N=C(c2ccncc2)OC1c1c[nH]c2ccccc12 (stereo not given) | > 30 µg/mL | > 30 µg/mL | > 30 µg/mL | > 30 µg/mL | 15.6 µg/mL (≈ 33.6 µM) | > 256 µg/mL | 19.2 µg/mL (≈ 41.4 µM) | > 256 µg/mL | 86.8 µg/mL (≈ 187 µM) | 148 µg/mL (≈ 320 µM) | > 30 µg/mL | > 30 µg/mL | 13.7 µg/mL (≈ 29.6 µM) | > 30 µg/mL | 12.7 µg/mL (≈ 27.4 µM) | > 30 µg/mL | 14.8 µg/mL (≈ 31.9 µM) | > 256 µg/mL | –
O=C(/C=C\c1cccc(Cl)c1Cl)N1N=C(c2ccncc2)OC1c1c[nH]c2ccccc12 (stereo not given) | > 30 µg/mL | > 30 µg/mL | > 30 µg/mL | > 30 µg/mL | 6.79 µg/mL (≈ 14.7 µM) | 198 µg/mL (≈ 427 µM) | 8.39 µg/mL (≈ 18.1 µM) | 168 µg/mL (≈ 362 µM) | 7.59 µg/mL (≈ 16.4 µM) | 162 µg/mL (≈ 349 µM) | > 30 µg/mL | > 30 µg/mL | > 30 µg/mL | > 30 µg/mL | > 30 µg/mL | > 30 µg/mL | 5.99 µg/mL (≈ 12.9 µM) | 159 µg/mL (≈ 343 µM) | –
O=C(/C=C\c1ccc(Cl)cc1)N1N=C(c2ccncc2)OC1c1c[nH]c2ccccc12 (stereo not given) | > 30 µg/mL | > 30 µg/mL | > 30 µg/mL | > 30 µg/mL | > 256 µg/mL | > 256 µg/mL | > 256 µg/mL | > 256 µg/mL | > 256 µg/mL | > 256 µg/mL | > 30 µg/mL | > 30 µg/mL | > 30 µg/mL | > 30 µg/mL | > 30 µg/mL | > 30 µg/mL | > 256 µg/mL | > 256 µg/mL | –
O=C(/C=C\c1ccc(Br)cc1)N1N=C(c2ccncc2)OC1c1c[nH]c2ccccc12 (stereo not given) | > 30 µg/mL | > 30 µg/mL | > 30 µg/mL | > 30 µg/mL | 10.4 µg/mL (≈ 22 µM) | > 256 µg/mL | 15.2 µg/mL (≈ 32.1 µM) | > 256 µg/mL | 12.8 µg/mL (≈ 27 µM) | > 256 µg/mL | > 30 µg/mL | > 30 µg/mL | > 30 µg/mL | > 30 µg/mL | > 30 µg/mL | > 30 µg/mL | 12.1 µg/mL (≈ 25.6 µM) | > 256 µg/mL | –
NNC(=O)c1ccncc1 [ISONIAZID] | – | – | – | – | – | – | – | – | – | – | – | – | 0.0014 µg/mL (≈ 0.0102 µM) | 0.034 µg/mL (≈ 0.248 µM) | 0.0013 µg/mL (≈ 0.00948 µM) | 0.031 µg/mL (≈ 0.226 µM) | – | – | selectivity ratio [6]: > 2560; selectivity ratio [7]: > 3030; selectivity ratio [8]: > 2560; selectivity ratio [9]: > 3030; selectivity ratio [10]: > 3030; selectivity ratio [11]: > 2560
CO[C@H]1/C=C/O[C@@]2(C)Oc3c(C)c(O)c4c(O)c(c(/C=N/N5CCN(C)CC5)c(O)c4c3C2=O)NC(=O)/C(C)=C\C=C\[C@H](C)[C@H](O)[C@@H](C)[C@@H](O)[C@@H](C)[C@H](OC(C)=O)[C@@H]1C [RIFAMPIN] | – | – | – | – | – | – | – | – | – | – | – | – | 0.0017 µg/mL (≈ 0.00207 µM) | 0.045 µg/mL (≈ 0.0547 µM) | 0.0016 µg/mL (≈ 0.00194 µM) | 0.041 µg/mL (≈ 0.0498 µM) | – | – | selectivity ratio [6]: > 2700; selectivity ratio [7]: > 2860; selectivity ratio [8]: > 2700; selectivity ratio [9]: > 2860; selectivity ratio [10]: > 2860; selectivity ratio [11]: > 2700
